Results: ChEMBL document CHEMBL1201862, “PubChem BioAssay data set” (2004)
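Results reflect a 48-hour exposure of cells in 96-well plates to compound at five concentrations. Abbreviation: GI50, concentration required for 50% inhibition of growth.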 The source made the active and inactive calls. Cut-off read from the data, not from the text of the source: active = GI50 up to about 1.1 µM and inactive = higher.

Experiments:
Test in all cases: inhibition of tumour cell growth, NCI panel, 48 h
[1] = system: Hs-578T
[2] = system: NCI/ADR-RES
[3] = system: SR
[4] = system: MDA-MB-231
[5] = system: NCI-H522
[6] = system: M14
[7] = system: SF-268
[8] = system: SW-620
[9] = system: SN12C
[10] = system: MDA-MB-435
[11] = system: OVCAR-5
[12] = system: HCT-15
[13] = system: LOX IMVI
[14] = system: NCI-H460
[15] = system: EKVX
[16] = system: SK-MEL-5
[17] = system: SK-OV-3
[18] = system: RPMI-8226
[19] = system: KM12
[20] = system: UACC-62
[21] = system: PC-3
[22] = system: HOP-62
[23] = system: MDA-N
[24] = system: T47D
[25] = system: CCRF-CEM
[26] = system: OVCAR-3
[27] = system: NCI-H23
[28] = system: IGROV-1
[29] = system: MOLT-4
[30] = system: A498
[31] = system: RXF 393
[32] = system: OVCAR-4
[33] = system: NCI-H226
[34] = system: HL-60
[35] = system: HT-29
[36] = system: BT-549
[37] = system: ACHN
[38] = system: OVCAR-8
[39] = system: Malme-3M
[40] = system: SF-539
[41] = system: TK-10
[42] = system: 786-0
[43] = system: SNB-75
[44] = system: UO-31
[45] = system: A549
[46] = system: SK-MEL-2
[47] = system: SF-295
[48] = system: HOP-92
[49] = system: MCF7
[50] = system: U-251
[51] = system: CAKI-1
[52] = system: SNB-19
[53] = system: HCT-116
[54] = system: HCC 2998
[55] = system: UACC-257
[56] = system: SK-MEL-28
[57] = system: K562

Cc1nc(C(N)=S)sc1C(=O)CC(=O)C(=O)Nc1cccc(Cl)c1C
GI50 [1]: > 100 µM (inactive) | GI50 [2]: > 100 µM (inactive) | GI50 [3]: > 100 µM (inactive) | GI50 [4]: > 100 µM (inactive) | GI50 [5]: > 100 µM (inactive) | GI50 [6]: > 100 µM (inactive) | GI50 [7]: > 100 µM (inactive) | GI50 [8]: > 100 µM (inactive) | GI50 [9]: > 100 µM (inactive) | GI50 [10]: > 100 µM (inactive) | GI50 [11]: > 100 µM (inactive) | GI50 [12]: > 100 µM | GI50 [13]: > 100 µM (inactive) | GI50 [14]: > 100 µM (inactive) | GI50 [15]: > 100 µM (inactive) | GI50 [16]: > 100 µM (inactive) | GI50 [17]: > 100 µM (inactive) | GI50 [18]: > 100 µM (inactive) | GI50 [19]: > 100 µM (inactive) | GI50 [20]: > 100 µM (inactive) | GI50 [21]: > 100 µM (inactive) | GI50 [22]: > 100 µM (inactive) | GI50 [23]: > 100 µM (inactive) | GI50 [24]: > 100 µM (inactive) | GI50 [25]: > 100 µM (inactive) | GI50 [26]: > 100 µM (inactive) | GI50 [27]: > 100 µM (inactive) | GI50 [28]: > 100 µM (inactive) | GI50 [29]: > 100 µM (inactive) | GI50 [30]: > 100 µM (inactive) | GI50 [31]: > 100 µM (inactive) | GI50 [32]: > 100 µM (inactive) | GI50 [33]: > 100 µM (inactive) | GI50 [34]: > 100 µM (inactive) | GI50 [35]: > 100 µM (inactive) | GI50 [36]: > 100 µM (inactive) | GI50 [37]: > 100 µM (inactive) | GI50 [38]: > 100 µM (inactive) | GI50 [39]: > 100 µM (inactive) | GI50 [40]: > 100 µM (inactive) | GI50 [41]: > 100 µM (inactive) | GI50 [42]: > 100 µM (inactive) | GI50 [43]: > 100 µM (inactive) | GI50 [44]: > 100 µM (inactive) | GI50 [45]: > 100 µM (inactive) | GI50 [46]: > 100 µM (inactive) | GI50 [47]: > 100 µM (inactive) | GI50 [48]: > 100 µM (inactive) | GI50 [49]: > 100 µM (inactive) | GI50 [50]: > 100 µM (inactive) | GI50 [51]: > 100 µM (inactive) | GI50 [52]: > 100 µM (inactive) | GI50 [53]: > 100 µM (inactive) | GI50 [54]: > 100 µM (inactive) | GI50 [55]: > 100 µM (inactive) | GI50 [56]: > 100 µM (inactive) | GI50 [57]: > 100 µM (inactive)
